Source: US20230040770A1, “HETEROCYCLIC COMPOUND AND USE THEREOF” (TAKEDA PHARMACEUTICAL COMPANY LIMITED, priority 2019, published 2023)

Molecular target: T1, human orexin type 2 receptor (Homo sapiens, UniProt O43614)
T1 construct: expressed in transfected cells
T1 sequence (O43614 1-444): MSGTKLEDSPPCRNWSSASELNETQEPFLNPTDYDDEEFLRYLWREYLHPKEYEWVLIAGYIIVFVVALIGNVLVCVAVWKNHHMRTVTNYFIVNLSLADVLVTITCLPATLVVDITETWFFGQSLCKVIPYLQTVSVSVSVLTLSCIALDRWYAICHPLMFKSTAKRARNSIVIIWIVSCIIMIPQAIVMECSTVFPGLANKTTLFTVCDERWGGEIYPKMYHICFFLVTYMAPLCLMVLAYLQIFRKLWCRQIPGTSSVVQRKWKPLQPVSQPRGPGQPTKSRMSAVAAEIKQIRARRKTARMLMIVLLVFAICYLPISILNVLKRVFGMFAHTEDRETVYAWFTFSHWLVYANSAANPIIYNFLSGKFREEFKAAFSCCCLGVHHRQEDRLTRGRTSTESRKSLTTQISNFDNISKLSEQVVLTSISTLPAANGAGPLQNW
Assay: Measurement of orexin type 2 receptor agonist activity (calcium indicator fluorescence, CHO cells forcibly expressing human OX2 receptor)
Assay type: cell-based
Conditions: compound at 3 μM; 0% = DMSO, 100% = orexin A (human) 10 nM
Method in brief: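 Agonist response normalised between vehicle (0%) and orexin A at 10 nM final (100%), from kinetic Fluo-4 calcium signals recorded for about 2 min after compound addition. Cells: stable human OX2R CHO clone, dye-loaded 30 min at 37 °C plus 30 min at room temperature.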

SMILES | OX2R agonist activity (3 μM, %) [%]
O=C(N1C[C@H](F)[C@H](NS(=O)(=O)C2CC2)[C@@H]1Cc1cccc(-c2cccc(F)c2)c1F)C12CC(C1)C2 [Example 384, N-{(2S,3R,4S)-1-(bicyclo[1.1.1]pentane-1-carbonyl)-2-[(2,3′-difluoro[1,1′-biphenyl]-3-yl)methyl]-4-fluoropyrrolidin-3-yl}cyclopropanesulfonamide] | 98
Cc1ccc(F)c(-c2cccc(C[C@H]3[C@@H](NS(=O)(=O)C4CC4)[C@@H](F)CN3C(=O)C3CCO3)c2F)c1 (stereo partly drawn) [Example 492, N-[(2S,3R,4S)-2-[(2,2′-difluoro-5′-methyl[1,1′-biphenyl]-3-yl)methyl]-4-fluoro-1-(oxetane-2-carbonyl)pyrrolidin-3-yl]cyclopropanesulfonamide] | 90
CCS(=O)(=O)N[C@H]1[C@@H](F)CN(C(=O)C(C)(C)O)[C@H]1Cc1cccc(-c2cccc(F)c2F)c1F [Example 222, N-{(2S,3R,4S)-4-fluoro-1-(2-hydroxy-2-methylpropanoyl)-2-[(2,2′,3′-trifluoro[1,1′-biphenyl]-3-yl)methyl]pyrrolidin-3-yl}ethanesulfonamide] | 97
CCS(=O)(=O)N[C@H]1[C@@H](F)CN(C(=O)C23CC(C2)C3)[C@H]1Cc1cccc(-c2ccccc2)c1F [Example 308, N-{(2S,3R,4S)-1-(bicyclo[1.1.1]pentane-1-carbonyl)-4-fluoro-2-[(2-fluoro[1,1′-biphenyl]-3-yl)methyl]pyrrolidin-3-yl}ethanesulfonamide] | 94
CC(C)C(=O)N1CC(F)(F)[C@H](NS(C)(=O)=O)[C@@H]1Cc1cccc(-c2cc(F)cc(F)c2)c1 [Example 35, N-[(2S,3R)-2-[(3′,5′-difluoro[1,1′-biphenyl]-3-yl)methyl]-4,4-difluoro-1-(2-methylpropanoyl)pyrrolidin-3-yl]methanesulfonamide] | 96
CC(C)(O)C(=O)N1C[C@H](F)[C@H](NS(=O)(=O)C2CC2)[C@@H]1Cc1cccc(-c2cc(F)cc(F)c2)c1F [Example 370, N-{(2S,3R,4S)-4-fluoro-1-(2-hydroxy-2-methylpropanoyl)-2-[(2,3′,5′-trifluoro[1,1′-biphenyl]-3-yl)methyl]pyrrolidin-3-yl}cyclopropanesulfonamide] | 91
CN(C)S(=O)(=O)N[C@@H]1[C@H](Cc2cccc(-c3cc(F)cc(F)c3)c2F)N(C(=O)N2CCC2)CC1(F)F [Example 548, N′-{(2S,3R)-1-(azetidine-1-carbonyl)-4,4-difluoro-2-[(2,3′,5′-trifluoro[1,1′-biphenyl]-3-yl)methyl]pyrrolidin-3-yl}-N,N-dimethylsulfuric diamide] | 94
CCS(=O)(=O)N[C@H]1[C@@H](F)CN(C(=O)C(C)(C)O)[C@H]1Cc1cccc(-c2cc(F)cc(F)c2)c1F [Example 220, N-{(2S,3R,4S)-4-fluoro-1-(2-hydroxy-2-methylpropanoyl)-2-[(2,3′,5′-trifluoro[1,1′-biphenyl]-3-yl)methyl]pyrrolidin-3-yl}ethanesulfonamide] | 90
CCS(=O)(=O)N[C@H]1[C@@H](F)CN(C(=O)C23CC(C2)C3)[C@H]1Cc1cccc(-c2cc(F)cc(F)c2)c1F [Example 365, N-{(2S,3R,4S)-1-(bicyclo[1.1.1]pentane-1-carbonyl)-4-fluoro-2-[(2,3′,5′-trifluoro[1,1′-biphenyl]-3-yl)methyl]pyrrolidin-3-yl}ethanesulfonamide] | 93
CCS(=O)(=O)N[C@H]1[C@@H](F)CN(C(=O)N(C)C)[C@H]1Cc1cccc(-c2cccc(C)c2)c1F [Example 333, (2S,3R,4S)-3-[(ethanesulfonyl)amino]-4-fluoro-2-[(2-fluoro-3′-methyl[1,1′-biphenyl]-3-yl)methyl]-N,N-dimethylpyrrolidine-1-carboxamide] | 78

Now from value to molecule:

OX2R agonist activity (3 μM, %) [%] | SMILES
96 | CS(=O)(=O)N[C@@H]1[C@H](Cc2cccc(-c3cc(F)cc(Cl)c3)c2F)N(C(=O)C2CCO2)CC1(F)F (stereo partly drawn) [Example 265, N-[(2S,3R)-2-[(3′-chloro-2,5′-difluoro[1,1′-biphenyl]-3-yl)methyl]-4,4-difluoro-1-(oxetane-2-carbonyl)pyrrolidin-3-yl]methanesulfonamide]
96 | CCS(=O)(=O)N[C@H]1[C@@H](F)CN(C(=O)C2CCO2)[C@H]1Cc1cccc(-c2cccc(F)c2)c1F (stereo partly drawn) [Example 217, N-[(2S,3R,4S)-2-[(2,3′-difluoro[1,1′-biphenyl]-3-yl)methyl]-4-fluoro-1-(oxetane-2-carbonyl)pyrrolidin-3-yl]ethanesulfonamide]
98 | CCS(=O)(=O)N[C@@H]1[C@H](Cc2cccc(-c3cc(C)cc(F)c3)c2F)N(C(=O)N2CCC2)CC1(F)F [Example 444, N-{(2S,3R)-1-(azetidine-1-carbonyl)-2-[(2,3′-difluoro-5′-methyl[1,1′-biphenyl]-3-yl)methyl]-4,4-difluoropyrrolidin-3-yl}ethanesulfonamide]
93 | CCS(=O)(=O)N[C@@H]1[C@H](Cc2cccc(-c3cc(F)cc(F)c3)c2F)N(C(=O)N2CCC2)CC1(F)F [Example 283, N-{(2S,3R)-1-(azetidine-1-carbonyl)-4,4-difluoro-2-[(2,3′,5′-trifluoro[1,1′-biphenyl]-3-yl)methyl]pyrrolidin-3-yl}ethanesulfonamide]
90 | CCS(=O)(=O)N[C@@H]1[C@H](Cc2cccc(-c3cccc(Cl)c3F)c2F)N(C(=O)C2CC2)CC1(F)F [Example 249, N-[(2S,3R)-2-[(3′-chloro-2,2′-difluoro[1,1′-biphenyl]-3-yl)methyl]-1-(cyclopropanecarbonyl)-4,4-difluoropyrrolidin-3-yl]ethanesulfonamide]
95 | CCS(=O)(=O)N[C@@H]1[C@H](Cc2cccc(-c3ccc(F)c(C)c3)c2F)N(C(=O)C2CCO2)CC1(F)F (stereo partly drawn) [Example 472, N-[(2S,3R)-2-[(2,4′-difluoro-3′-methyl[1,1′-biphenyl]-3-yl)methyl]-4,4-difluoro-1-(oxetane-2-carbonyl)pyrrolidin-3-yl]ethanesulfonamide]
88 | CCS(=O)(=O)N[C@@H]1[C@H](Cc2cccc(-c3cccc(C)c3F)c2F)N(C(=O)C2(O)CCC2)CC1(F)F [Example 276, N-[(2S,3R)-2-[(2,2′-difluoro-3′-methyl[1,1′-biphenyl]-3-yl)methyl]-4,4-difluoro-1-(1-hydroxycyclobutane-1-carbonyl)pyrrolidin-3-yl]ethanesulfonamide]
98 | CCS(=O)(=O)N[C@@H]1[C@H](Cc2cccc(-c3ccccc3)c2F)N(C(=O)C2CCO2)CC1(F)F (stereo partly drawn) [Example 45, N-[(2S,3R)-4,4-difluoro-2-[(2-fluoro[1,1′-biphenyl]-3-yl)methyl]-1-(oxetane-2-carbonyl)pyrrolidin-3-yl]ethanesulfonamide]
93 | CS(=O)(=O)N[C@@H]1[C@H](Cc2cccc(-c3ccccc3)c2F)N(C(=O)C2CC(F)C2)CC1(F)F (stereo partly drawn) [Example 441, N-[(2S,3R)-4,4-difluoro-2-[(2-fluoro[1,1′-biphenyl]-3-yl)methyl]-1-(3-fluorocyclobutane-1-carbonyl)pyrrolidin-3-yl]methanesulfonamide]
106 | CS(=O)(=O)N[C@@H]1[C@H](Cc2cccc(-c3cc(F)cc(F)c3)c2F)N(C(=O)[C@H]2C[C@H](F)C2)CC1(F)F [Example 431, N-{(2S,3R)-4,4-difluoro-1-((1r,3S)-3-fluorocyclobutane-1-carbonyl)-2-[(2,3′,5′-trifluoro[1,1′-biphenyl]-3-yl)methyl]pyrrolidin-3-yl}methanesulfonamide]
91 | CCS(=O)(=O)N[C@@H]1[C@H](Cc2cccc(-c3cc(F)c(F)cc3F)c2F)N(C(=O)C2CCO2)CC1(F)F (stereo partly drawn) [Example 469, N-{(2S,3R)-4,4-difluroo-1-(oxetane-2-carbonyl)-2-[(2,2′,4′5′-tetrafluoro[1,1′-biphenyl]-3-yl)methyl]pyrrolidin-3-yl}ethanesulfonamide]
97 | Cc1cc(F)cc(-c2cccc(C[C@H]3[C@@H](NS(=O)(=O)C4CC4)C(F)(F)CN3C(=O)N(C)C)c2F)c1 [Example 522, (2S,3R)-3-[(cyclopropanesulfonyl)amino]-2-[(2,3′-difluoro-5′-methyl[1,1′-biphenyl]-3-yl)methyl]-4,4-difluoro-N,N-dimethylpyrrolidine-1-carboxamide]
93 | CS(=O)(=O)N[C@@H]1[C@H](Cc2cccc(-c3cc(F)ccc3F)c2F)N(C(=O)C2CC(F)C2)CC1(F)F (stereo partly drawn) [Example 439, N-{(2S,3R)-4,4-difluoro-1-(3-fluorocyclobutane-1-carbonyl)-2-[(2,2′,5′-trifluoro[1,1′-biphenyl]-3-yl)methyl]pyrrolidin-3-yl}methanesulfonamide]
96 | CS(=O)(=O)N[C@@H]1[C@H](Cc2cccc(-c3cccc(Cl)c3)c2F)N(C(=O)C2CCO2)CC1(F)F (stereo partly drawn) [Example 259, N-[(2S,3R)-2-[(3′-chloro-2-fluoro[1,1′-biphenyl]-3-yl)methyl]-4,4-difluoro-1-(oxetane-2-carbonyl)pyrrolidin-3-yl]methanesulfonamide]
